Experimental data from patent US20020028788A1, “Vaginal active agent delivery procedures and formulations thereof” (priority 1998, published 2002).
Marks after values point to notes of the source that are not given here.

What was measured:
cattle [1] = assay: Follicular dynamics and oestrus following vaginal oestradiol 17β or intramuscular oestradiol benzoate; format: in vivo; details: for Follicle wave turnover (i.e. DF3) / No follicle wave turnover (i.e. no DF3): number of animals
[2] = Plasma oestradiol concentration and pharmacokinetics following vaginal or intramuscular administration; format: in vivo; details: cattle, oestradiol benzoate
Method: Error bars are standard error means (n=3).
FIG. 2 is a plasma oestradiol concentrations following vaginal administration of 10 mg oestradiol benzoate (open square), 10 mg oestradiol benzoate with 1:1 molar ratio β-cyclodextrin (open diamond), 10 mg oestradiol benzoate with 1:1 molar ratio hydroxypropyl β-cyclodextrin (open circle) or 10 mg oestradiol benzoate with 1:1 molar ratio γ-cyclodextrin (open triangle). Error bars are standard error means (n=4).
Error bars are standard error means (n=4).

cattle [3] = details: past attempts; vaginal administration by capsule; doses typically 10 times higher than intra-muscular; cited from earlier work
[4] = 2.5 mg oestradiol 17β, vaginal administration
[5] = 5.0 mg oestradiol 17β, vaginal administration
[6] = 2.5 mg oestradiol 17β, vaginal administration, group n = 8
[7] = 5.0 mg oestradiol 17β, vaginal administration, group n = 8
[8] = 2 mg oestradiol benzoate, intramuscular administration
[9] = 2 mg oestradiol benzoate, intramuscular administration, group n = 7

Compound: C[C@]12CC[C@@H]3c4ccc(O)cc4CC[C@H]3[C@@H]1CC[C@@H]2O [oestradiol 17β]
- Age of ovulatory DF2 (cattle [1]; [4]): 12.0 ± 0.6 ^ d
- Age of ovulatory DF3 (cattle [1]; [4]): 6 days
- Day DF2 emerged (cattle [1]; [4]): 9.9 ± 0.4^a
- Diameter DF2 on Day 13 (cattle [1]; [4]): 9.9 ± 0.5^a mm
- Diameter of ovulatory DF2 (cattle [1]; [4]): 15.6 ± 0.7 ^ mm
- Diameter of ovulatory DF3 (cattle [1]; [4]): 12 mm
- Growth of DF2 from Day 13-17 (cattle [1]; [4]): 2.4 ± 0.6^a mm
- Day of oestrus (cattle [1]; 2.5 mg oestradiol 17β, vaginal administration, n = 7): 22.0 ± 0.0 (n = 7)
- Age of ovulatory DF2 (cattle [1]; [5]): 11.5 ± 0.5 ^ d
- Age of ovulatory DF3 (cattle [1]; [5]): 7.0 ± 0.5^ d
- Day DF2 emerged (cattle [1]; [5]): 10.0 ± 0.6^a
- Day DF3 emerged (cattle [1]; [5]): 15.7 ± 0.6 ^
- Diameter DF2 on Day 13 (cattle [1]; [5]): 9.3 ± 0.8^a mm
- Diameter of ovulatory DF2 (cattle [1]; [5]): 17.0 ± 1.0 ^ mm
- Diameter of ovulatory DF3 (cattle [1]; [5]): 13.7 ± 0.7 ^ mm
- Growth of DF2 from Day 13-17 (cattle [1]; [5]): 0.9 ± 0.8^ab mm
- Day of oestrus (cattle [1]; 5.0 mg oestradiol 17β, vaginal administration, n = 8): 22.0 ± 0.0 (n = 8)
- Follicle wave turnover (i.e. DF3) (cattle [1]; [6]): 3
- No follicle wave turnover (i.e. no DF3) (cattle [1]; [6]): 5
- Follicle wave turnover (i.e. DF3) (cattle [1]; [7]): 6
- No follicle wave turnover (i.e. no DF3) (cattle [1]; [7]): 2
- influence on follicular dynamics (cattle [1]; vaginal administration, 5 mg oestradiol 17β and γ-cyclodextrin in molar ratio 0.5:1, compared with i.m. 2 mg oestradiol benzoate): influences follicular dynamics in a similar manner

Compound: C[C@]12CC[C@@H]3c4ccc(OC(=O)c5ccccc5)cc4CC[C@H]3[C@@H]1CC[C@@H]2O [oestradiol benzoate]
- absorption following vaginal administration [2]: poor and variable absorption
- oestrus expression and fertility (cattle [3]): poor oestrus expression and poor fertility
- Age of ovulatory DF3 (cattle [1]; [8]): 6.0 ± 0.5^ d
- Day DF2 emerged (cattle [1]; [8]): 9.6 ± 0.6^a
- Day DF3 emerged (cattle [1]; [8]): 17.0 ± 0.4 ^
- Diameter DF2 on Day 13 (cattle [1]; [8]): 9.6 ± 1.0^a mm
- Diameter of ovulatory DF3 (cattle [1]; [8]): 14.2 ± 0.4 ^ mm
- Growth of DF2 from Day 13-17 (cattle [1]; [8]): −0.6 ± 0.7^b mm
- Day of oestrus (cattle [1]; 2 mg oestradiol benzoate, intramuscular administration, n = 7): 22.6 ± 0.2 (n = 7)
- Follicle wave turnover (i.e. DF3) (cattle [1]; [9]): 6
- No follicle wave turnover (i.e. no DF3) (cattle [1]; [9]): 1
